Consider 15 compounds from EP4800015A1, “AZABICYCLO DERIVATIVE AND PREPARATION METHOD THEREFOR, AND USE” (Zhejiang Hisun Pharmaceutical Co., Ltd., priority 2023, dated 2025).

One experiment concerns the target T1, recombinant human WRN (Homo sapiens, UniProt Q14191).
T1 construct: purchased BPS 101264
The experiment can be described thus: Inhibition of WRN enzyme activity (ATPase), ADP-Glo Kinase Assay. As to conditions: WRN protein 5 nM, Flap 0.1 nM, ATP 30 µM; read-out: IC50. It is filed as biochemical. The method, boiled down: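 Recombinant human WRN (5 nM) was preincubated with compound (1000–0.004 nM) for 15 min at room temperature. Flap26 5'-flap DNA (0.1 nM) and 30 µM ATP were then added for 10 min in Tris pH 7.5, MgCl2, NaCl, BSA, Pluronic buffer. ADP was detected by ADP-Glo luminescence, and IC50 was obtained by nonlinear regression versus a 0.1% DMSO control.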

In the next experiment the test system is SW48 cells. The experiment in a line: Inhibition of SW48 cell proliferation (CellTiter-Glo). Type of experiment: cell-based. As to conditions: Homo sapiens; SW48 cells (MSI-H), 120 hours. The method, boiled down: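 SW48 (MSI-H) cells in L-15 with 10% FBS were seeded at 500 per well, cultured overnight at 37 °C, then exposed to compound at final concentrations of 10000 nM to 1.52 nM for 120 h. Viability was read by CellTiter-Glo luminescence, with inhibition relative to 0.1% DMSO. IC50 from nonlinear regression of log concentration versus inhibition.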
(In general: In ATP-based viability assays light output follows the ATP content of the culture.)

The subject of a further experiment is RL95-2 cells. The experiment in a line: Inhibition of RL95-2 cell proliferation (CellTiter-Glo). It is filed as cell-based. The conditions noted are these: Homo sapiens; RL95-2 cells (MSI-H), 120 hours. The method, boiled down:
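RL95-2 (MSI-H) cells, 500/well in DMEM/F12 with 10% FBS, adhered overnight, then treated 120 h at 37 °C, 5% CO2 with compound at final 1.52-10000 nM. Viability by CellTiter-Glo luminescence. Inhibition relative to 0.1% DMSO control; IC50 from nonlinear regression of log concentration versus inhibition.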

Structures are written as SMILES. Where only a bound is given, the exact number is not on record here.

T1 sequence (Q14191 whole entry): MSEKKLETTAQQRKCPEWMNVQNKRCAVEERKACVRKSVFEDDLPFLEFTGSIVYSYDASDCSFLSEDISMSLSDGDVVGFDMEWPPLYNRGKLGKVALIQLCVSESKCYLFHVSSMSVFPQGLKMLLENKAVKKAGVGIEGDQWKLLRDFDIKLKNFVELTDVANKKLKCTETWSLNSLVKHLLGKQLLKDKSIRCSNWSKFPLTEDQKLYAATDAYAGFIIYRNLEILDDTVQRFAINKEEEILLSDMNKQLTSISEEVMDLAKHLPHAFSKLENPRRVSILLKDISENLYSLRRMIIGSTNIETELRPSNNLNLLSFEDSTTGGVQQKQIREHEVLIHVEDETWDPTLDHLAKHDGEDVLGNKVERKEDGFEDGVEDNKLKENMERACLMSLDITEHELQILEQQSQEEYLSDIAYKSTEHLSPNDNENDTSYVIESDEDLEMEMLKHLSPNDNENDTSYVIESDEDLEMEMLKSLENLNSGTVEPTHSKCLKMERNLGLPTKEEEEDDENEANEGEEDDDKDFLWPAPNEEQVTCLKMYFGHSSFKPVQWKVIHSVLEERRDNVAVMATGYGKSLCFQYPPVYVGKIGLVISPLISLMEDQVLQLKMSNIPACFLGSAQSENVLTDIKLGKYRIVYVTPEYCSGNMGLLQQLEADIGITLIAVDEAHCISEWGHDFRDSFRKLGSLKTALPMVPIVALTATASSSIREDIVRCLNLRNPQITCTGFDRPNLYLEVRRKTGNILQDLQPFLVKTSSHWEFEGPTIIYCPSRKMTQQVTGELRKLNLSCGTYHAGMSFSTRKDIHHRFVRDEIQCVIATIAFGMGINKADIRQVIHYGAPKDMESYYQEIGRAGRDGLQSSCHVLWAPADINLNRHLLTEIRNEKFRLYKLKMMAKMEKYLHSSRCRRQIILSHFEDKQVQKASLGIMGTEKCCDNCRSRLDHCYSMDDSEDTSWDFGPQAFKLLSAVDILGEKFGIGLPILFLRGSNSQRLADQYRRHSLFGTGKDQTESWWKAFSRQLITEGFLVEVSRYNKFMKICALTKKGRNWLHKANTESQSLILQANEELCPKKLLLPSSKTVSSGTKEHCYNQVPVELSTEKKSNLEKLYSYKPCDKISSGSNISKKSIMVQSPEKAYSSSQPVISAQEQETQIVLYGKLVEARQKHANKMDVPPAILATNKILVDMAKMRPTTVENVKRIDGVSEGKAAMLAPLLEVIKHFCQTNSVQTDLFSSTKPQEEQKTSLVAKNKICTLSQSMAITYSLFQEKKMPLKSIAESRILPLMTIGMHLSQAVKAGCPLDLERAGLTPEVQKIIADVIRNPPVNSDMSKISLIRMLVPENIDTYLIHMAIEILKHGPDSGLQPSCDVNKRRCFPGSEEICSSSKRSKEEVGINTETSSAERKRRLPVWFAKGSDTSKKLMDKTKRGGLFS

For the compound `CCc1c(N2CCN(C(=O)c3ncnc(C)c3O)CC2)c(=O)n2nc(-c3cc4ccccc4o3)nc2n1CC(=O)Nc1ccc(C(F)(F)F)cc1Cl` [Example 19, 2-(2-(benzofuran-2-yl)-5-ethyl-6-(4-(5-hydroxy-6-methylpyrimidine-4-carbonyl)piperazin-1-yl)-7-oxo-[1,2,4]triazolo[1,5-a]pyrimidin-4(7H)-yl)-N-(2-chloro-4-(trifluoromethyl)phenyl)acetamide], the IC50 is less than 1 nM on recombinant human WRN, 1 to 100 nM in the experiment with SW48 cells and 1 to 100 nM in the experiment with RL95-2 cells.
As to `[2H]C([2H])([2H])Sc1ccc(NC(=O)Cn2c(CC)c(N3CCN(C(=O)c4ncnc(C)c4O)CC3)c(=O)n3nc(-c4ccc5c(c4)CCO5)nc23)c(Cl)c1` [Example 147, N-(2-chloro-4-((methyl-d3)thio)phenyl)-2-(2-(2,3-dihydrobenzofuran-5-yl)-5-ethyl-6-(4-(5-hydroxy-6-methylpyrimidine-4-carbonyl)piperazin-1-yl)-7-oxo-[1,2,4]triazolo[1,5-a]pyrimidin-4(7H)-yl)acetamide], the IC50 at recombinant human WRN, in the experiment with SW48 cells and with RL95-2 cells was 1 to 100 nM throughout.
On to `CCc1c(N2CCN(C(=O)c3ncccc3O)CC2)c(=O)n2nc(C3=CC4COCC4C3)nc2n1CC(=O)Nc1ccc(C(F)(F)F)cc1Cl` (stereo not drawn) [Example 159, N-(2-chloro-4-(trifluoromethyl)phenyl)-2-(5-ethyl-6-(4-(3-hydroxypicolinoyl)piperazin-1-yl)-7-oxo-2-(3,3a,4,6a-tetrahydro-1H-cyclopenta[c]furan-5-yl)-[1,2,4]triazolo[1,5-a]pyrimidin-4(7H)-yl) acetamide], for which the IC50 at recombinant human WRN, with SW48 cells and in the experiment with RL95-2 cells was 1 to 100 nM each time.
On to `CCc1c(N2CCN(C(=O)c3ncnc(C)c3O)CC2)c(=O)n2nc(-c3ccc4[nH]ccc4c3)nc2n1CC(=O)Nc1ccc(C(F)(F)F)cc1Cl` [Example 102, N-(2-chloro-4-(trifluoromethyl)phenyl)-2-(5-ethyl-6-(4-(5-hydroxy-6-methylpyrimidine-4-carbonyl)piperazin-1-yl)-2-(1H-indol-5-yl)-7-oxo-[1,2,4]triazolo[1,5-a]pyrimidin-4(7H)-yl)acetamide], for which the IC50 at recombinant human WRN, in the experiment with SW48 cells and with RL95-2 cells was 1 to 100 nM each time.
For `CCc1c(C2=CCN(C(=O)c3ncnc(C)c3O)CC2)c(=O)n2nc(-c3ccc4c(c3)CCO4)nc2n1CC(=O)Nc1ccc(C(F)(F)F)cc1Cl` [Example 149, N-(2-chloro-4-(trifluoromethyl)phenyl)-2-(2-(2,3-dihydrobenzofuran-5-yl)-5-ethyl-6-(1-(5-hydroxy-6-methylpyrimidine-4-carbonyl)-1,2,3,6-tetrahydropyridin-4-yl)-7-oxo-[1,2,4]triazolo[1,5-a]pyrimidin-4(7H)-yl)acetamide], the IC50 at recombinant human WRN, with SW48 cells and in the experiment with RL95-2 cells was 1 to 100 nM each time.
As for `CCc1c(N2CCN(C(=O)c3ncnc(C)c3O)CC2)c(=O)n2nc(C=C3CCC3)nc2n1CC(=O)Nc1ccc(S(F)(F)(F)(F)F)cc1` [Example 53, 2-(2-(cyclobutylidenemethyl)-5-ethyl-6-(4-(5-hydroxy-6-methylpyrimidine-4-carbonyl)piperazin-1-yl)-7-oxo-[1,2,4]triazolo[1,5-a]pyrimidin-4(7H)-yl)-N-(4-(pentafluoro-λ^6-sulfaneyl)phenyl)ace tamide], the IC50 at recombinant human WRN, in the experiment with SW48 cells and in the experiment with RL95-2 cells was 1 to 100 nM each time.
Regarding `CCc1c(N2CCN(C(=O)c3ncnc(C)c3O)CC2)c(=O)n2nc(-c3ccc4sccc4c3)nc2n1CC(=O)Nc1ccc(C(F)(F)F)cc1Cl` [Example 54, 2-(2-(benzo[b]thiophen-5-yl)-5-ethyl-6-(4-(5-hydroxy-6-methylpyrimidine-4-carbonyl)piperazin-1-yl)-7-oxo-[1,2,4]triazolo[1,5-a]pyrimidin-4(7H)-yl)-N-(2-chloro-4-(trifluoromethyl)phenyl)acet amide], the IC50 at recombinant human WRN, in the experiment on SW48 cells and in the experiment on RL95-2 cells was 1 to 100 nM throughout.
With `CCc1c(N2CCN(C(=O)c3ncccc3O)CC2)c(=O)n2nc(C3=CC4CC(O)CC4C3)nc2n1CC(=O)Nc1ccc(S(F)(F)(F)(F)F)cc1` (stereo not drawn) [Example 178, 2-(5-ethyl-2-(5-hydroxy-1,3a,4,5,6,6a-hexahydropentalen-2-yl)-6-(4-(3-hydroxypicolinoyl)piperazin-1-yl)-7-oxo-[1,2,4]triazolo[1,5-a]pyrimidin-4(7H)-yl)-N-(4-(pentafluoro-λ^6-sulfaneyl)phenyl) acetamide], the IC50 is less than 1 nM on recombinant human WRN, 1 to 100 nM in the experiment on SW48 cells and 1 to 100 nM in the experiment on RL95-2 cells.
On to `CCc1c(N2CCN(C(=O)c3nccc(Cl)c3O)CC2)c(=O)n2nc(C3=CC4COCC4C3)nc2n1CC(=O)Nc1ccc(C(F)(F)F)cc1Cl` (stereo not drawn) [Example 188, 2-(6-(4-(4-chloro-3-hydroxypicolinoyl)piperazin-1-yl)-5-ethyl-7-oxo-2-(3,3a,4,6a-tetrahydro-1H-cyclopenta[c]furan-5-yl)-[1,2,4]triazolo[1,5-a]pyrimidin-4(7H)-yl)-N-(2-chloro-4-(trifluoromethyl)phenyl)acetamide], for which the 50% inhibitory concentration (IC50) at recombinant human WRN, in the experiment on SW48 cells and in the experiment on RL95-2 cells was 1 to 100 nM throughout.
In the case of `CCc1c(N2CCN(C(=O)c3ncnc(C)c3O)CC2)c(=O)n2nc(C3=CC4CC(OC)CC4C3)nc2n1CC(=O)Nc1ccc(C(F)(F)F)cc1Cl` (stereo not drawn) [Example 163, N-(2-chloro-4-(trifluoromethyl)phenyl)-2-(5-ethyl-6-(4-(5-hydroxy-6-methylpyrimidine-4-carbonyl)piperazin-1-yl)-2-(5-methoxy-1,3a,4,5,6,6a-hexahydropentalen-2-yl)-7-oxo-[1,2,4]triazolo[1,5-a]pyrimidin-4(7H)-yl)acetamide], the IC50 on recombinant human WRN, with SW48 cells and in the experiment on RL95-2 cells was 1 to 100 nM throughout.
Take `CCc1c(N2CCN(C(=O)c3ncnc(C)c3O)CC2)c(=O)n2nc(-c3ccc4cc[nH]c4c3)nc2n1CC(=O)Nc1ccc(C(F)(F)F)cc1Cl` [Example 123, N-(2-chloro-4-(trifluoromethyl)phenyl)-2-(5-ethyl-6-(4-(5-hydroxy-6-methylpyrimidine-4-carbonyl)piperazin-1-yl)-2-(1H-indo1-6-yl)-7-oxo-[1,2,4]triazolo[1,5-a]pyrimidin-4(7H)-yl)acetamide]: the IC50 at recombinant human WRN, in the experiment with SW48 cells and in the experiment on RL95-2 cells was 1 to 100 nM in each case.
Turning to `CCc1c(N2CCN(C(=O)c3ncnc(C)c3O)CC2)c(=O)n2nc(-c3ccc4c(c3)CCO4)nc2n1CC(=O)Nc1ccc(S(F)(F)(F)(F)F)cc1` [Example 86, 2-(2-(2,3-dihydrobenzofuran-5-yl)-5-ethyl-6-(4-(5-hydroxy-6-methylpyrimidine-4-carbonyl)piperazin-1-yl)-7-oxo-[1,2,4]triazolo[1,5-a]pyrimidin-4(7H)-yl)-N-(4-(pentafluoro-λ^6-sulfaneyl)phenyl)acetamide], the IC50 on recombinant human WRN, in the experiment on SW48 cells and with RL95-2 cells was 1 to 100 nM each time.
For `CCc1c(N2CCN(C(=O)c3ncnc(C)c3O)CC2)c(=O)n2nc(-c3ccc4c(ccn4CC)c3)nc2n1CC(=O)Nc1ccc(C(F)(F)F)cc1Cl` [Example 183, N-(2-chloro-4-(trifluoromethyl)phenyl)-2-(5-ethyl-2-(1-ethyl-1H-indol-5-yl)-6-(4-(5-hydroxy-6-methylpyrimidine-4-carbonyl)piperazin-1-yl)-7-oxo-[1,2,4]triazolo[1,5-a]pyrimidin-4(7H)-yl)ace tamide], the IC50 on recombinant human WRN, in the experiment with SW48 cells and in the experiment on RL95-2 cells was 1 to 100 nM in each case.
As for `CCc1c(N2CCN(C(=O)c3ncnc(C)c3O)CC2)c(=O)n2nc(-c3ccc4occc4c3)nc2n1CC(=O)Nc1ccc(S(F)(F)(F)(F)F)cc1Cl` [Example 85, 2-(2-(Benzofuran-5-yl)-5-ethyl-6-(4-(5-hydroxy-6-methylpyrimidine-4-carbonyl)piperazin-1-yl)-7-oxo-[1,2,4]triazolo[1,5-a]pyrimidin-4(7H)-yl)-N-(2-chloro-4-(pentafluoro-λ^6-sulfaneyl)phenyl) acetamide], the IC50 on recombinant human WRN, with SW48 cells and in the experiment with RL95-2 cells was 1 to 100 nM each time.
As for `CCc1c(N2CCN(C(=O)c3ncnc(C)c3O)CC2)c(=O)n2nc(-c3cccc4c3OCC4)nc2n1CC(=O)Nc1ccc(C(F)(F)F)cc1Cl` [Example 154, N-(2-chloro-4-(trifluoromethyl)phenyl)-2-(2-(2,3-dihydrobenzofuran-7-yl)-5-ethyl-6-(4-(5-hydroxy-6-methylpyrimidine-4-carbonyl)piperazin-1-yl)-7-oxo-[1,2,4]triazolo[1,5-a]pyrimidin-4(7H)-yl)acetamide], the IC50 at recombinant human WRN, in the experiment on SW48 cells and with RL95-2 cells was 1 to 100 nM in each case.

As usually defined, the IC50 is the concentration that inhibits the measured activity by half.
